Tests used:
Assay type in all cases: cell-based
[1] = tested on: efflux mutants of E. coli; test: Broth microdilution MIC (NCCLS), E. coli efflux mutants; conditions: Escherichia coli, read-out: MICs
Procedure: (§1) Representative bis-quinazolines were tested for antibacterial activity using the […] microdilution method to determine their minimum inhibitory concentrations (MICs). All compounds were tested using standard methods in accordance with NCCLS guidelines (National Committee for Clinical Laboratory Standards. 2003. Methods for dilution antimicrobial susceptibility testing for bacteria that grow aerobically. Approved Standard M-7 A-6, NCCLS, Wayne, Pa.). The bacterial strains used in the susceptibility tests were obtained from the American Type Culture Collection (ATCC) and included resistant phenotypes such as oxacillin-resistant S. aureus (ORSA) and vancomycin-resistant enterococci (VRE). The minimum bactericidal concentrations (MBCs) were determined for selected organisms. The effect of protein binding on the antibacterial activity of representative bis-quinazolines were determined by conducting MIC tests in the presence of human serum.

[2] = tested on: M. catarrhalis; test: Broth microdilution MIC (NCCLS), M. catarrhalis; conditions: Moraxella catarrhalis; some strains of M. catarrhalis; read-out: MIC range
Procedure: as §1

[3] = tested on: S. aureus, E. faecalis, S. pyogenes and S. pneumoniae; test: Broth microdilution MIC (NCCLS), gram-positive strains; conditions: range against some strains of S. aureus, E. faecalis, S. pyogenes and S. pneumoniae; read-out: MIC
How it was run: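 MICs by broth microdilution per NCCLS M-7 A-6 against ATCC strains, including ORSA and VRE; MBCs determined for selected organisms. Serum effect assessed by repeating MIC tests with human serum present.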

[4] = tested on: H. influenzae; test: Broth microdilution MIC (NCCLS), H. influenzae; conditions: Haemophilus influenzae; some strains of H. influenzae
Procedure: as §1

[5] = tested on: efflux mutants of P. aeruginosa; test: Broth microdilution MIC (NCCLS), P. aeruginosa efflux mutants; conditions: Pseudomonas aeruginosa, read-out: MICs
Procedure: as §1

Structure (SMILES)	MIC [1] [µg/mL]	MIC [2] [µg/mL]	MIC [3] [µg/mL]	MIC [4] [µg/mL]	MIC [5] [µg/mL]
COCCOc1ccc2nc(Nc3nc(O)c4c(OC)cccc4n3)nc(C)c2c1.O=C(O)C(F)(F)F [Example 88, 5-Methoxy-2-[6-(2-methoxy-ethoxy)-4-methyl-quinazolin-2-ylamino]-quinazolin-4-ol trifluoroacetate salt]	16 to 64	2 to 64	0.06 to 16	16 to 32	64
COCCOc1cc2nc(Nc3nc(O)c4cccc(OC)c4n3)nc(C)c2cc1OCCOC.O=C(O)C(F)(F)F [Example 89, 2-[6,7-Bis-(2-methoxy-ethoxy)-4-methyl-quinazolin-2-ylamino]-8-methoxy-quinazolin-4-ol trifluoroacetate salt]	16 to 64	2 to 64	0.06 to 16	16 to 32	64
COc1cc2nc(Nc3nc(O)c4c(OC)cccc4n3)nc(CF)c2cc1OC.O=C(O)C(F)(F)F [Example 90, 2-(4-Fluoromethyl-6,7-dimethoxy-quinazolin-2-ylamino)-5-methoxy-quinazolin-4-ol trifluoroacetate salt]	16 to 64	2 to 64	0.06 to 16	16 to 32	64
COc1cccc2c(O)nc(Nc3nc(C)c4c(OC)ccc(C)c4n3)nc12.O=C(O)C(F)(F)F [Example 91, 8-Methoxy-2-(5-methoxy-4,8-dimethyl-quinazolin-2-ylamino)-quinazolin-4-ol trifluoroacetate salt]	16 to 64	2 to 64	0.06 to 16	16 to 32	64
COc1cc2c(C)nc(Nc3nc(O)c4c(OC)cccc4n3)nc2cc1F.O=C(O)C(F)(F)F [Example 94, 2-(7-Fluoro-6-methoxy-4-methyl-quinazolin-2-ylamino)-5-methoxy-quinazolin-4-ol trifluoroacetate salt]	16 to 64	2 to 64	0.06 to 16	16 to 32	64
COc1ccc(OC)c2c(O)nc(Nc3nc(C)c4ccc5c(c4n3)OCCO5)nc12.O=C(O)C(F)(F)F [Example 95, 5,8-Dimethoxy-2-(8-methyl-2,3-dihydro-1,4-dioxa-5,7-diaza-phenanthren-6-ylamino)-quinazolin-4-ol trifluoroacetate salt]	16 to 64	2 to 64	0.06 to 16	16 to 32	64
COc1cc2nc(Nc3nc(O)c4cccc(F)c4n3)nc(C)c2cc1OC.O=C(O)C(F)(F)F [Example 96, 2-(6,7-Dimethoxy-4-methyl-quinazolin-2-ylamino)-8-fluoro-quinazolin-4-ol trifluoroacetate salt]	16 to 64	2 to 64	0.06 to 16	16 to 32	64
CCOc1cccc2c(O)nc(Nc3nc(C)c4cc(OC)c(OC)cc4n3)nc12.O=C(O)C(F)(F)F [Example 97, 2-(6,7-Dimethoxy-4-methyl-quinazolin-2-ylamino)-8-ethoxy-quinazolin-4-ol trifluoroacetate salt]	16 to 64	2 to 64	0.06 to 16	16 to 32	64
COc1cc(OC)c2nc(Nc3nc(O)c4cccc(F)c4n3)nc(C)c2c1.O=C(O)C(F)(F)F [Example 98, 2-(6,8-Dimethoxy-4-methyl-quinazolin-2-ylamino)-8-fluoro-quinazolin-4-ol trifluoroacetate salt]	16 to 64	2 to 64	0.06 to 16	16 to 32	64
COc1cc2nc(Nc3nc(O)c4c(OC)ccc(OC)c4n3)nc(C)c2cc1OC.O=C(O)C(F)(F)F [Example 99, 2-(6,7-Dimethoxy-4-methyl-quinazolin-2-ylamino)-5,8-dimethoxy-quinazolin-4-ol trifluoroacetate salt]	16 to 64	2 to 64	0.06 to 16	16 to 32	64
COCCOc1ccc2nc(Nc3nc(C)c4cc(OC)c(OC)cc4n3)nc(O)c2c1.O=C(O)C(F)(F)F [Example 102, 2-(6,7-Dimethoxy-4-methyl-quinazolin-2-ylamino)-6-(2-methoxy-ethoxy)-quinazolin-4-ol trifluoroacetate salt]	16 to 64	2 to 64	0.06 to 16	16 to 32	64
COc1cc2c(C)nc(Nc3nc(O)c4cccc(F)c4n3)nc2cc1O.O=C(O)C(F)(F)F [Example 104, 2-(8-Fluoro-4-hydroxy-quinazolin-2-ylamino)-6-methoxy-4-methyl-quinazolin-7-ol trifluoroacetate salt]	16 to 64	2 to 64	0.06 to 16	16 to 32	64
Cc1nc(Nc2nc(O)c3cccc(F)c3n2)nc2cc3c(cc12)OCCO3.O=C(O)C(F)(F)F [Example 108, 8-Fluoro-2-(4-methyl-7,8-dihydro-[1,4]dioxino[2,3-g]quinazolin-2-ylamino)-quinazolin-4-ol trifluoroacetate salt]	16 to 64	2 to 64	0.06 to 16	16 to 32	64
CCN(CC)CCOc1ccc2nc(Nc3nc(O)c4cccc(OC)c4n3)nc(C)c2c1.O=C(O)C(F)(F)F [Example 115, 2-[6-(2-Diethylamino-ethoxy)-4-methyl-quinazolin-2-ylamino]-8-methoxy-quinazolin-4-ol trifluoroacetate salt]	16 to 64	2 to 64	0.06 to 16	16 to 32	64
COc1cc2nc(Nc3nc(O)c4cc(N)cc(C)c4n3)nc(C)c2cc1OC.O=C(O)C(F)(F)F [Example 120, 6-Amino-2-(6,7-dimethoxy-4-methyl-quinazolin-2-ylamino)-8-methyl-quinazolin-4-ol trifluoroacetate salt]	16 to 64	2 to 64	0.06 to 16	16 to 32	64
COc1cc2nc(Nc3nc(O)c4cc(N(C)C)cc(C)c4n3)nc(C)c2cc1OC.O=C(O)C(F)(F)F [Example 121, 2-(6,7-Dimethoxy-4-methyl-quinazolin-2-ylamino)-6-dimethylamino-8-methyl-quinazolin-4-ol trifluoroacetate salt]	16 to 64	2 to 64	0.06 to 16	16 to 32	64
CCN(CC)CCOc1ccc2nc(Nc3nc(O)c4cc(N)cc(C)c4n3)nc(C)c2c1.O=C(O)C(F)(F)F [Example 125, 6-Amino-2-[6-(2-diethylamino-ethoxy)-4-methyl-quinazolin-2-ylamino]-8-methyl-quinazolin-4-ol trifluoroacetate salt]	16 to 64	2 to 64	0.06 to 16	16 to 32	64
COc1cccc2c(C)nc(Nc3nc(O)c4cc(OCCN5CCC(O)C5)ccc4n3)nc12.O=C(O)C(F)(F)F (centres unmarked) [Example 138, 6-[2-(3-Hydroxy-pyrrolidin-1-yl)-ethoxy]-2-(8-methoxy-4-methyl-quinazolin-2-ylamino)-quinazolin-4-ol trifluoroacetate salt]	16 to 64	2 to 64	0.06 to 16	16 to 32	64
COc1cc(OC)c2nc(Nc3nc(O)c4cc(OCCN(C)CCO)ccc4n3)nc(C)c2c1.O=C(O)C(F)(F)F [Example 140, 2-(6,8-Dimethoxy-4-methyl-quinazolin-2-ylamino)-6-{2-[(2-hydroxy-ethyl)-methyl-amino]-ethoxy}-quinazolin-4-ol trifluoroacetate salt]	16 to 64	2 to 64	0.06 to 16	16 to 32	64
COc1cc2nc(Nc3nc(O)c4cc(OCCNC(CO)C(C)C)ccc4n3)nc(C)c2cc1OC.O=C(O)C(F)(F)F (centres unmarked) [Example 142, 2-(6,7-Dimethoxy-4-methyl-quinazolin-2-ylamino)-6-[2-(1-hydroxymethyl-2-methyl-propylamino)-ethoxy]-quinazolin-4-ol Trifluoroacetate salt]	16 to 64	2 to 64	0.06 to 16	16 to 32	64
COc1cc(OC)c2nc(Nc3nc(O)c4cc(OCCNC(C)CO)ccc4n3)nc(C)c2c1.O=C(O)C(F)(F)F (centres unmarked) [Example 143, 2-(6,8-Dimethoxy-4-methyl-quinazolin-2-ylamino)-6-[2-(2-hydroxy-1-methyl-ethylamino)-ethoxy]-quinazolin-4-ol trifluoroacetate salt]	16 to 64	2 to 64	0.06 to 16	16 to 32	64
CCN(CC)CCOc1ccc2nc(Nc3nc(C)c4cc(OC)cc(OC)c4n3)nc(O)c2c1.O=C(O)C(F)(F)F [Example 144, 6-(2-Diethylamino-ethoxy)-2-(6,8-dimethoxy-4-methyl-quinazolin-2-ylamino)-quinazolin-4-ol trifluoroacetate salt]	16 to 64	2 to 64	0.06 to 16	16 to 32	64

Source: patent US20050124562A1, “Bis-quinazoline compounds for the treatment of bacterial infections” (priority 2003, published 2005)
